Data reported in patent publication US11452781B2, “Method of preventing and treating type 1 diabetes, allograft rejection and lung fibrosis (by targeting the ATP/P2X7R axis)” (CHILDREN'S MEDICAL CENTER CORPORATION, priority 2013, dated 2022).
Entries after “also recorded” stand apart in the source; their conditions may differ.

Columns and labels:
[1] = test system: PBMCs obtained from healthy control subjects; assay: ELISPOT, human PBMCs challenged with allogeneic irradiated PBMCs; assay type: cell-based
[2] = test system: C57BL/6 mice transplanted with BALB/c hearts; assay type: in vivo, mouse; conditions: oATP-treated cardiac-transplanted mice
Protocol: The effect of P2X7R targeting in preventing cardiac transplant rejection was tested using the P2X7R inhibitor oATP.
The effect of P2X7R targeting in preventing cardiac transplant rejection was tested by using the P2X7R inhibitor oATP.

naïve CD4+ T-cells = assay: ELISPOT, naïve CD4+ T cells stimulated with anti-CD3-Ig and anti-CD28-Ig; assay type: cell-based, mouse; conditions: for anti-CD3-Ig/anti-CD28-Ig-mediated IFN-γ production: 100 μM oATP combined with 50 μM NF-449 and 50 μM 5-BDBD
Protocol: The effect of P2X7R targeting was tested by treatment with oATP during T-cell activation. […] Similarly, in a T-cell proliferation assay, CFSE-labeled naïve CD4^+ T-cells were stimulated for 4 days with 0.5 μg/ml anti-CD3-Ig and anti-CD28-Ig; treatment with 100 μM oATP diminished CD4^+ T-cell proliferation (FIG. 5B, right panel) compared to controls (FIG. 5B, left panel).
To address the mechanisms underlying P2X7R targeting mediated inhibition of cardiac transplant rejection, the inventors analyzed the effect of P2X7R targeting on T-cell activation and Th1/Th17 differentiation in vitro. […] The effect of in vitro P2X7R targeting with oATP during CD4+ T-cell activation was tested. […] Second, in a T-cell proliferation assay, carboxyfluorescein diacetate succinimidyl ester-labeled naïve CD4+ T cells were stimulated for 96 hours with 0.5 μg/mL anti-CD3-Ig and anti-CD28-Ig, and treatment with 100 μM oATP diminished CD4+ T cell proliferation in comparison with controls. […] The inventors next tested the effect of in vitro P2X7R targeting during a Th1/Th17 generation and differentiation assay. […] P2X7R targeting with oATP inhibited Th0 conversion into both Th1 and Th17, as assessed by the percentage of IFN-γ+ and IL-17+ cells, respectively. The inventors show, therefore, that P2X7R targeting through oATP suppresses activation, proliferation, and Th1/Th17 differentiation of CD4+ T cells. The inventors then further investigated the role of P2X7R on T-cell activation and Th1/Th17 differentiation by genetic upregulation of P2X7R. P2X7R cDNA was transduced by using a pMY-IRES-GFP retroviral vector into CD4+ T cells (pmY-P2X7R CD4+ T cells), and upregulation of P2X7R expression was confirmed by Western blot. pmY-P2X7R CD4+ T cells were then challenged with anti-CD3-Ig/anti-CD28-Ig stimulation in an ELISPOT assay. […] In a Th1/Th17 generation assay, pmY-P2X7R CD4+ T cells seemed to display increased differentiation capacity in comparison with pmY-mock CD4+ T cells, as assessed by T-bet and ROR-γ expression.
(§1) Several key components of T-cell receptor signaling involved in the alloimmune response were examined, and the phosphorylation kinetics following in vitro anti-CD3-Ig/anti-CD28-Ig-mediated CD4+ T-cell activation was evaluated by using the Luminex assay. […] The inventors first confirmed that Colivelin (Col) was able to restore the activation-induced phosphorylation of STAT3 in a dose-dependent manner in oATP-treated CD4+ T cells by Western blotting. […] The effect of oATP and Colivelin on STAT3 phosphorylation and T-cell function was also evaluated following cardiac transplantation.

STAT3 [3] = assay: Phosphorylation of T-cell signaling molecules in activated CD4+ T cells (Luminex/Milliplex, Western blot); assay type: cell-based, mouse; conditions: Colivelin add-back, Western blot
Protocol: 60 minutes after anti-CD3-Ig and anti-CD28-Ig mediated activation, cells were lysed and the phosphorylation status of CREB, Erk, Akt, JNK, p38, p70 S6 Kinase, STAT3, and STAT5A/B was assessed using the Millipore Milliplex Cell Signaling Assay. […] Data were confirmed by western blot (FIG. 6D).
as §1

STAT3 [4] = assay: STAT3 phosphorylation in CD4+ T cells of cardiac-transplanted mice (Western blot); assay type: in vivo, mouse; conditions: 7 days after transplantation
Protocol: as §1

[5] = test system: B6 recipients of BALB/c lung allografts; assay: Mouse orthotopic lung transplant, BALB/c donor and C57BL/6 recipient; assay type: in vivo
Protocol: Orthotopic left lung transplants were performed as previously described {Bizargity, #22; Iken, #21}. Briefly, donor mice were anesthetized with ketamine and xylazine, intubated with a 22 G Angiocath, and ventilated with isoflurane/oxygen. Lungs were flushed with ice cold phosphate buffered saline, left lung harvested and cuffs placed in the pulmonary artery, pulmonary vein and bronchus. Recipient mice were anesthetized and ventilated with isoflurane/oxygen, and left lung transplants performed via a thoracotomy and implantation of the three-cuffed hilar structures. Transplanted lungs were harvested 15 to 60-70 days following transplantation.
Allografts were evaluated 15, 30, and 60-70 days after transplant.
Outcome Measures—In vivo assessment of transplanted lung function was performed by thoracic CT scan imaging and measuring peak airway pressures (PawP) as previously described {Bizargity, #22}. […] Flow cytometry and enzyme-linked immunosorbent spot assay (ELISPOT) for interferon (IFN)-γ and interleukin (IL)-4 were performed as previously described {Vergani, #25; Vergani, #9}.

[6] = test system: C57BL/6 mice transplanted with BALB/c islets; assay: Allogeneic islet transplantation, BALB/c islets into diabetic C57BL/6 mice: graft survival; assay type: in vivo, mouse; conditions: oATP daily i.p. 14-15 days, rapamycin 0.1 mg/kg 10 days
CD4+ and CD8+ T cells = assay: IFN-γ production of CD4+ and CD8+ T cells with Bz-ATP; assay type: cell-based, mouse
C57BL/6 splenocytes = assay: In vitro alloimmune ELISPOT, C57BL/6 responder splenocytes vs irradiated BALB/c splenocytes; assay type: cell-based, mouse; conditions: selective P2X1R / P2X3R inhibitors
Text: The effect of increasing doses of oATP on Th1/Th17 cytokine levels was next tested. A dose-dependent response was evident, in which oATP reduced the number of cells producing Th1 cytokines (IFN-γ and IL-2) and Th17 cytokines (IL-6 and IL-17). Because it has been reported that oATP may affect other P2XRs, the inventors made use of the availability of the selective P2X1R inhibitor NF 449 and of the selective P2X3R inhibitor NF 110. C57BL/6 splenocytes were stimulated with irradiated BALB/c splenocytes, and IFN-γ production was evaluated in the presence of these inhibitors.

For `COC[C@H](O)Cn1c(=O)cnn(-c2ccc(Cl)c(C(=O)NCC3(O)CCCCCC3)c2)c1=O` [CE-224535], the “allo- and autoimmune responses ex vivo” value [1] was “inhibition”.

With Colivelin the “effect of Colivelin on oATP-mediated allograft survival” value [2] was “greatly abrogated the effect of oATP”, the “reversal of oATP-mediated suppression of IFN-γ-producing cells” value (naïve CD4+ T-cells; Colivelin added to oATP-treated cells) was “significantly revert; also recorded: partially reverted” and the “activation-induced phosphorylation of STAT3 in oATP-treated CD4+ T cells” value (STAT3 [3]) was “restore”. The “phosphorylated STAT3 in CD4+ T cells” value (STAT3 [4]) was “reestablish STAT3 phosphorylation”.

For `Cc1ccc(C(=O)Nc2ccc(S(=O)(=O)O)c3cc(S(=O)(=O)O)cc(S(=O)(=O)O)c23)cc1NC(=O)c1cccc(NC(=O)Nc2cccc(C(=O)Nc3cc(C(=O)Nc4ccc(S(=O)(=O)O)c5cc(S(=O)(=O)O)cc(S(=O)(=O)O)c45)ccc3C)c2)c1` [suramin], the “acute cellular rejection (ACR grade)” value ([5]; 15, 30 and ≥60 days after transplantation) was “reduction” and the “lung function (PawP)” value ([5]; 15 to ≥60 days) was “improved”.

In the case of `CO[C@H]1C[C@@H]2CC[C@@H](C)[C@@](O)(O2)C(=O)C(=O)N2CCCC[C@H]2C(=O)O[C@H]([C@H](C)C[C@@H]2CC[C@@H](O)[C@H](OC)C2)CC(=O)[C@H](C)/C=C(\C)[C@@H](O)[C@@H](OC)C(=O)[C@H](C)C[C@H](C)/C=C/C=C/C=C/1C` [Rapamycin], the “islet allograft mean survival time (MST)” value [6] is reported as 19 days and the “islet allograft mean survival time (MST)” value ([6]; listed as rapamycin) is reported as 18 days.

For `O=C1CN=C(c2cccc(Br)c2)c2oc3ccccc3c2N1` [5-BDBD], the “anti-CD3-Ig/anti-CD28-Ig-mediated IFN-γ production” value (naïve CD4+ T-cells) was “further suppression”.

For `Nc1ncnc2c1ncn2[C@@H]1O[C@H](COP(=O)(O)OP(=O)(O)OP(=O)(O)O)[C@@H](OC(=O)c2ccc(C(=O)c3ccccc3)cc2)[C@H]1O` [Bz-ATP, benzoyl-ATP], the IFN-γ production (CD4+ and CD8+ T cells; 1 mmol/L Bz-ATP, T cells from wildtype mice) was “increased” and the IFN-γ production (CD4+ and CD8+ T cells; T cells from P2X7R2/2 mice) was “similarly stimulated”.

With `O=C(Nc1cc(C(=O)Nc2ccc(S(=O)(=O)O)cc2)cc(C(=O)Nc2ccc(S(=O)(=O)O)cc2)c1)Nc1cc(C(=O)Nc2ccc(S(=O)(=O)O)cc2)cc(C(=O)Nc2ccc(S(=O)(=O)O)cc2)c1` [NF 110] the “alloantigen-mediated IFN-γ production” value (C57BL/6 splenocytes) was “failed to modulate”.

In the case of `O=C(Nc1cc(C(=O)Nc2ccc(S(=O)(=O)O)cc2S(=O)(=O)O)cc(C(=O)Nc2ccc(S(=O)(=O)O)cc2S(=O)(=O)O)c1)Nc1cc(C(=O)Nc2ccc(S(=O)(=O)O)cc2S(=O)(=O)O)cc(C(=O)Nc2ccc(S(=O)(=O)O)cc2S(=O)(=O)O)c1` [NF 449], the “anti-CD3-Ig/anti-CD28-Ig-mediated IFN-γ production” value (naïve CD4+ T-cells) is reported as “further suppression” and the “alloantigen-mediated IFN-γ production” value (C57BL/6 splenocytes) is reported as “failed to modulate”.
